From patent publication US9771369B2, “Compounds and methods for kinase modulation, and indications therefor” (Plexxikon Inc., priority 2014, dated 2017)

Molecular target: c-kit mutant D816V (Homo sapiens (Human), UniProt P10721, D816V/DEL694-753)
Assay: c-Kit mutant D816V biochemical assay (AlphaScreen kinase activity)
How it was run: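 AlphaScreen with streptavidin donor and PY30 acceptor beads read phosphotyrosine on biotin-(E4Y)10 substrate (30 nM). Enzyme: E. coli-expressed N-His c-Kit D816V, residues 551-934 lacking kinase insert 694-753. Reaction 30 min at room temperature, 10 μM ATP, 5% DMSO; IC50 fitted over 8 three-fold dilutions.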

Sequence of c-kit mutant D816V (P10721 other isoform, or with tags, fused parts or gaps D816V/del 694-753): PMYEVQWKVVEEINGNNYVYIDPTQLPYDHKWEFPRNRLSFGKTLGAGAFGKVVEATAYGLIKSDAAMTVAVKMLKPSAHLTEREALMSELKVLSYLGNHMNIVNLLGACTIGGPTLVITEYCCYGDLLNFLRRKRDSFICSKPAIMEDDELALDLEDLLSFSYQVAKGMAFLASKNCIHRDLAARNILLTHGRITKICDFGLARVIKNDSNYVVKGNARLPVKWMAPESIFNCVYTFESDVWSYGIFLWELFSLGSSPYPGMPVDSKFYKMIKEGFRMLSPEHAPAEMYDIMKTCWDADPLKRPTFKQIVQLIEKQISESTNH

Row | Compound | IC50 [µM]
1 | CCOc1ccc(-c2[nH]c(C3(C)CCN(c4ncnc5[nH]c(-c6ccc(C(=O)NC)nc6)cc45)CC3)nc2C)cc1C [P-3247, 5-[4-[4-[5-(4-ethoxy-3-methyl-phenyl)-4-methyl-1H-imidazol-2-yl]-4-methyl-1-piperidyl]-7H-pyrrolo[2,3-d]pyrimidin-6-yl]-N-methyl-pyridine-2-carb oxamide] | 0.0001 to 1
2 | Cc1nc(C2(C)CCN(c3ncnc4[nH]c(-c5ccc(N6CCOCC6)nc5)cc34)CC2)[nH]c1-c1ccc(OC(F)F)cc1 [P-3248, 4-[5-[4-[4-[5-[4-(difluoromethoxy)phenyl]-4-methyl-1H-imidazol-2-yl]-4-methyl-1-piperidyl]-7H-pyrrolo[2,3-d]pyrimidin-6-yl]-2-pyridyl]morpholine] | 0.0001 to 1
3 | CCOc1ccc(-c2[nH]c(C3(C)CCN(c4ncnc5[nH]c(-c6ccc(N7CCOCC7)nc6)cc45)CC3)nc2C)cc1C [P-3249, 4-[5-[4-[4-[5-(4-ethoxy-3-methyl-phenyl)-4-methyl-1H-imidazol-2-yl]-4-methyl-1-piperidyl]-7H-pyrrolo[2,3-d]pyrimidin-6-yl]-2-pyridyl]morpholine] | 0.0001 to 1
